Test results reported in ChEMBL document CHEMBL5055657, “Effect of phenylurea hydroxamic acids on histone deacetylase and VEGFR-2” (Bioorg Med Chem, 2021).
pIC50: −log10 of the molar value.

What was measured:
SK-HEP1 = experiment: cells; format: functional, cell-based; settings: Homo sapiens, SK-HEP1, 48 h
A549 = experiment: cells; format: functional, cell-based; settings: Homo sapiens, A549, 48 h
cells = format: functional; settings: Homo sapiens, Endothelial progenitor cell; time 48 hrs
PC-3 = experiment: cells; format: functional, cell-based; settings: Homo sapiens, PC-3, 48 h
Homo sapiens [1] = species on record: Homo sapiens; experiment: Selectivity ratio of IC50 for full length recombinant C-terminal GST-fusion-tagged human HDAC2 to IC50 for full length recombinant N-terminal GST-tagged human HDAC6 expressed in baculovirus infected Sf9 insect cells
[2] = target: T1, Histone deacetylase (Homo sapiens) (UniProt Q13547+O15379+Q9UBN7+Q92769+Q9UQL6+Q8WUI4+Q9BY41+Q96DB2+P56524+Q9UKV0+Q969S8); experiment: Inhibition of HDAC in human A549 cells assessed as increase in acetylated histone H3 level measured after 24 hrs by Western blot analysis; format: cell-based; settings: dose 5-10 µM
Homo sapiens [3] = species on record: Homo sapiens; experiment: Selectivity ratio of IC50 for recombinant C-terminal His-fusion tagged/N-terminal Strep2 tagged human HDAC8 (1 to 377 residues) expressed in insect cells to IC50 full length recombinant N-terminal GST-tagged human HDAC6 expressed in baculovirus infected Sf9 insect cells
[4] = target: T1, Histone deacetylase (Homo sapiens); experiment: Inhibition of HDAC in human SK-HEP1 cells assessed as increase in acetylated alpha tubulin level measured after 24 hrs by Western blot analysis; format: cell-based; settings: dose 5-10 µM
[5] = target: T1, Histone deacetylase (Homo sapiens); experiment: Inhibition of HDAC in human A549 cells assessed as increase in acetylated alpha tubulin level measured after 24 hrs by Western blot analysis; format: cell-based; settings: dose 5-10 µM
[6] = target: T1, Histone deacetylase (Homo sapiens); experiment: Inhibition of HDAC in human SK-HEP1 cells assessed as increase in acetylated histone H3 level measured after 24 hrs by Western blot analysis; format: cell-based; settings: dose 5-10 µM
[7] = target: T1, Histone deacetylase (Homo sapiens); experiment: Inhibition of HDAC in human PC-3 cells assessed as increase in acetylated histone H3 level measured after 24 hrs by Western blot analysis; format: cell-based; settings: dose 5-10 µM
[8] = target: T2, Vascular endothelial growth factor receptor 2 (Homo sapiens, UniProt P35968)
[9] = target: T3, Protein deacetylase HDAC6 (Homo sapiens, UniProt Q9UBN7); experiment: Inhibition of full length recombinant N-terminal GST-tagged human HDAC6 expressed in baculovirus infected Sf9 insect cells using RHK-K(Ac)-AMC as substrate measured after 90 mins by fluorescence plate reader assay
T3 sequence (Q9UBN7 whole entry): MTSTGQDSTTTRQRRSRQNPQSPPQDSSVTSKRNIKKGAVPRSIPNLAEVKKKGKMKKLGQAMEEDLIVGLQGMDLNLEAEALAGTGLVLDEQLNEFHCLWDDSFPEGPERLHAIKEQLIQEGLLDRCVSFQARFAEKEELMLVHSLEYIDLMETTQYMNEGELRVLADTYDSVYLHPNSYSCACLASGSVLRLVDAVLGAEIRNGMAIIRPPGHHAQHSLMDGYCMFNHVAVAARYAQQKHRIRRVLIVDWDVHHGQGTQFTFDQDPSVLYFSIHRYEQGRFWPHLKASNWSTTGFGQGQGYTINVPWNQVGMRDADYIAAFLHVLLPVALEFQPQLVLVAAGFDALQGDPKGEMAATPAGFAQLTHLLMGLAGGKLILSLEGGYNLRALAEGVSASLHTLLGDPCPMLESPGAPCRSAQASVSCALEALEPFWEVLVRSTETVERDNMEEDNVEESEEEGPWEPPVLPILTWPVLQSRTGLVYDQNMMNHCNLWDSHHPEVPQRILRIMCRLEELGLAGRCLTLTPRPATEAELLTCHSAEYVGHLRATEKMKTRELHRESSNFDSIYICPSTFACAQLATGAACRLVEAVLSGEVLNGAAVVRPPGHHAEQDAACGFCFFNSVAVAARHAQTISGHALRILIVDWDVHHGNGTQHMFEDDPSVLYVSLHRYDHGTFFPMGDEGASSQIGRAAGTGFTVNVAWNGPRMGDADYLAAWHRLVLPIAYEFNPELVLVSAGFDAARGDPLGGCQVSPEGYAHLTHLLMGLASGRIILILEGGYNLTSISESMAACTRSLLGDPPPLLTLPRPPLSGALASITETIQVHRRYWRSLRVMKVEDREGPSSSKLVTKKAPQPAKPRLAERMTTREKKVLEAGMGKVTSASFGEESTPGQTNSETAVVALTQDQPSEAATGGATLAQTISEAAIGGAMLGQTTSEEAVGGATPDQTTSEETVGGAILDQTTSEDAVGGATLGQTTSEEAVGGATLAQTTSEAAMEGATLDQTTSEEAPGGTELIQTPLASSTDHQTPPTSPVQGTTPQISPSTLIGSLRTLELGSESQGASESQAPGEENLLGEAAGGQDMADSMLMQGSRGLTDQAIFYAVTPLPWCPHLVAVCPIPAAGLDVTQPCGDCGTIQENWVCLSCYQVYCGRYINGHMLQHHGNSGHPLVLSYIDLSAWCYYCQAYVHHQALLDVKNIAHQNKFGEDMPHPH

[10] = target: T1, Histone deacetylase (Homo sapiens); experiment: Inhibition of HDAC in human PC-3 cells assessed as increase in acetylated alpha tubulin level measured after 24 hrs by Western blot analysis; format: cell-based; settings: dose 5-10 µM
Homo sapiens [11] = species on record: Homo sapiens; experiment: Selectivity ratio of IC50 for full length recombinant C-terminal FLAG/His-tagged human HDAC1 expressed in baculovirus infected Sf21 insect cells to IC50 for full length recombinant N-terminal GST-tagged human HDAC6 expressed in baculovirus infected Sf9 insect cells
Histone deacetylase 1 = Histone deacetylase 1 (Homo sapiens, UniProt Q13547); experiment: Inhibition of full length recombinant C-terminal FLAG/His-tagged human HDAC1 expressed in baculovirus infected Sf21 insect cells using RHK-K(Ac)-AMC as substrate measured after 60 mins by fluorescence plate reader assay
Histone deacetylase 2 = Histone deacetylase 2 (Homo sapiens, UniProt Q92769); experiment: Inhibition of full length recombinant C-terminal GST-fusion-tagged human HDAC2 expressed in insect cells using RHK-K(Ac)-AMC as substrate measured after 60 mins by fluorescence plate reader assay
[12] = target: T2, Vascular endothelial growth factor receptor 2; experiment: Inhibition of VEGFR2 phosphorylation in human Endothelial progenitor cells at 5 to 10 uM measured after 10 mins by Western blot analysis; format: tissue-based; settings: Endothelial progenitor cell, dose 5-10 µM
Histone deacetylase 8 = target: T4, Histone deacetylase 8 (Homo sapiens, UniProt Q9BY41); experiment: Inhibition of recombinant C-terminal His-fusion tagged/N-terminal Strep2 tagged human HDAC8 (1 to 377 residues) expressed in insect cells using RHK-K(Ac)-K(Ac)-AMC as substrate measured after 60 mins by fluorescence plate reader assay
T4 sequence (Q9BY41 whole entry): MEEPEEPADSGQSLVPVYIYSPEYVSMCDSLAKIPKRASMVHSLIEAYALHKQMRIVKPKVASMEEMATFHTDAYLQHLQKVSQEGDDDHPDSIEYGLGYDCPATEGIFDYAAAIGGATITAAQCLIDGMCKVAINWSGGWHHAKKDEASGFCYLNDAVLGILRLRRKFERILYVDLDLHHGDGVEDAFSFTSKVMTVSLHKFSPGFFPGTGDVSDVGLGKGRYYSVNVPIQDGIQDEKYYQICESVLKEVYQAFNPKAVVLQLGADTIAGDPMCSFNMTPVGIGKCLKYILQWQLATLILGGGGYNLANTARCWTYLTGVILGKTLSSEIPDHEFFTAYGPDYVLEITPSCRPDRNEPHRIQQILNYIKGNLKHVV

[13] = test system: Endothelial progenitor cell; experiment: Antiangiogenesis activity in human Endothelial progenitor cells assessed as retarded capillary like tube formation measured for 24 hrs by microscopic analysis; format: functional, tissue-based; settings: dose 5-10 µM

T2 sequence (P35968 whole entry): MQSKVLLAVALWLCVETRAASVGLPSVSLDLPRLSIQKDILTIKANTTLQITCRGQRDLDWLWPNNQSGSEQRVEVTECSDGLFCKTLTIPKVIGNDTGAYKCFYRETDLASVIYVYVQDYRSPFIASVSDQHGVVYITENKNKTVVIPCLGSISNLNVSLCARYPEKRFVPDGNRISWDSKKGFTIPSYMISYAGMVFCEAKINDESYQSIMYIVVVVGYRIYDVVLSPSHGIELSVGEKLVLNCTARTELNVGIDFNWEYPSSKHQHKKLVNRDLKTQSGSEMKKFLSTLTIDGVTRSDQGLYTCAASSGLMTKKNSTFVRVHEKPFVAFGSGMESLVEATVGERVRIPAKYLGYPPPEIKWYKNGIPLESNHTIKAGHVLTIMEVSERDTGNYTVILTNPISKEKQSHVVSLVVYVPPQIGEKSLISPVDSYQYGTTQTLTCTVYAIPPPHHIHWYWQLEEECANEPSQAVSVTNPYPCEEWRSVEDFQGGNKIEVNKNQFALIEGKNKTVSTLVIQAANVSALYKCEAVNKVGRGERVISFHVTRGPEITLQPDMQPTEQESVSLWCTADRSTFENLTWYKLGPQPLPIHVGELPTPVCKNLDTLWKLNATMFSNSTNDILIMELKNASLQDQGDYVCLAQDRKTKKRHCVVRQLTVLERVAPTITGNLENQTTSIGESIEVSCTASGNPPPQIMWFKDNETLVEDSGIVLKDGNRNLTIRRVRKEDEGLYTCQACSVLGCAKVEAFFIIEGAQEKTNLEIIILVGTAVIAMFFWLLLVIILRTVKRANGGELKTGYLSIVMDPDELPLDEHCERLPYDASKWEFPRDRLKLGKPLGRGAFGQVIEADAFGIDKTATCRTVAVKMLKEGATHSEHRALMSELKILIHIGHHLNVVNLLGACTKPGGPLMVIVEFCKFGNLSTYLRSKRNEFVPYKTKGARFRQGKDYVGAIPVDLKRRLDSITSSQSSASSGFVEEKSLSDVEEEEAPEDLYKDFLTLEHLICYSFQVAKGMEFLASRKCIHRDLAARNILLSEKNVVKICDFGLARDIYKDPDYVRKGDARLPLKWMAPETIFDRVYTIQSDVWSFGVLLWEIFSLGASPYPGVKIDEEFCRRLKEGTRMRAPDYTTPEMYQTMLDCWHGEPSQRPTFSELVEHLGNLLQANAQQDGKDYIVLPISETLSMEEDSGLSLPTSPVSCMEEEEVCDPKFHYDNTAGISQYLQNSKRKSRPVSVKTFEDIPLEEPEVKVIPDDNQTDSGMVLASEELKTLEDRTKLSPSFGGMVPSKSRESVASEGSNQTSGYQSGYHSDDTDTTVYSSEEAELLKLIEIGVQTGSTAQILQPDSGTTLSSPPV
Sequence of Histone deacetylase 1 (Q13547 whole entry, the tested form may be a part): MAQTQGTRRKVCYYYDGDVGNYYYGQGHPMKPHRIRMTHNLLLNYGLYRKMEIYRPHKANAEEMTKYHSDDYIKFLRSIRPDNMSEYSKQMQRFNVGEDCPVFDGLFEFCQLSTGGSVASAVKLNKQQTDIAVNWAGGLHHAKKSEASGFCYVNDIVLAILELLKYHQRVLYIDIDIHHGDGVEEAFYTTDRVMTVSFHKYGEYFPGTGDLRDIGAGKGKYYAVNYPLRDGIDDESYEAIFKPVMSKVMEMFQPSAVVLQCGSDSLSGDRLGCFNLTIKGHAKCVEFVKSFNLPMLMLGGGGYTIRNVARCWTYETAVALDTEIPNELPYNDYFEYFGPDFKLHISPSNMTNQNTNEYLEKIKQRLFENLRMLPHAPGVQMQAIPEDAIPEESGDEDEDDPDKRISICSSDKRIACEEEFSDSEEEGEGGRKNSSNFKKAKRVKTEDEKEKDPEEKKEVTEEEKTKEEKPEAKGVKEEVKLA
Sequence of Histone deacetylase 2 (Q92769 whole entry, the tested form may be a part): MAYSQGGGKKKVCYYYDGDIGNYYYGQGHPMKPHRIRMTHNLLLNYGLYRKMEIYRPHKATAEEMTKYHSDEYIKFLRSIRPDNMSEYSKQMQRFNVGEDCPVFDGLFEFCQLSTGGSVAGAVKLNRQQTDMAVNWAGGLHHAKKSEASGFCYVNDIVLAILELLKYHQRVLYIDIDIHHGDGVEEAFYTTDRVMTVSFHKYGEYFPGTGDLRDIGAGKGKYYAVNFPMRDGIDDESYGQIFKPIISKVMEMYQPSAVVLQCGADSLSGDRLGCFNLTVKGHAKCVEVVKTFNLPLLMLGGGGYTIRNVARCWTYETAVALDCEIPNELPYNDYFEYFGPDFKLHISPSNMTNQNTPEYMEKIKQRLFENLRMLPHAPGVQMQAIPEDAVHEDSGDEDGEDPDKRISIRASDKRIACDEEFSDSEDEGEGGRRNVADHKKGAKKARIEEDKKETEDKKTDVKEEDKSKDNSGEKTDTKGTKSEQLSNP

Row | SMILES | pIC50 (SK-HEP1) | pIC50 (A549) | GI50 (cells) | pIC50 (PC-3) | pIC50 [9] | other results
1 | O=C(CCCC(=O)Nc1ccc(NC(=O)Nc2ccc(Cl)c(C(F)(F)F)c2)cc1)NO | < 5.00 | < 5.00 | > 10 µM | < 5.00 | – | –
2 | O=C(CCCCC(=O)Nc1ccc(NC(=O)Nc2ccc(Cl)c(C(F)(F)F)c2)cc1)NO | < 5.00 | < 5.00 | > 10 µM | < 5.00 | – | –
3 | O=C(Nc1ccc(C(=O)NO)cc1)Nc1ccc(Cl)c(C(F)(F)F)c1 | 5.42 | 5.14 | 1.3 µM | 5.51 | – | –
4 | O=C(CCCCCC(=O)Nc1ccc(NC(=O)Nc2ccc(Cl)c(C(F)(F)F)c2)cc1)NO | < 5.00 | < 5.00 | > 10 µM | < 5.00 | – | –
5 | O=C(Nc1ccc2c(c1)CCN2Cc1ccc(C(=O)NO)cc1)Nc1ccc(Cl)c(C(F)(F)F)c1 | 5.34 | 5.51 | 1.6 µM | 5.47 | – | –
6 | O=C(/C=C/c1ccc(NC(=O)Nc2ccc(Cl)c(C(F)(F)F)c2)cc1)NO | 5.49 | 5.47 | 1 µM | 5.72 | 6.78 | Ratio IC50 (Homo sapiens [1]): > 60.2; inhibition [2]: Dose-dependent effect; Ratio IC50 (Homo sapiens [3]): 12; inhibition [4]: Dose-dependent effect; inhibition [5]: Dose-dependent effect; inhibition [6]: Dose-dependent effect; inhibition [7]: Dose-dependent effect; pIC50 [8]: 4.88; inhibition [10]: Dose-dependent effect; Ratio IC50 (Homo sapiens [11]): 43.6; pIC50 (Histone deacetylase 1): 5.14; pIC50 (Histone deacetylase 2): < 5.00; inhibition [12]: Dose-dependent effect; pIC50 (Histone deacetylase 8): 5.70; Activity [13]: Dose-dependent effect
7 | O=C(Nc1ccc(NCc2ccc(C(=O)NO)cc2)cc1)Nc1ccc(Cl)c(C(F)(F)F)c1 | 5.14 | 5.37 | 2.8 µM | 5.42 | – | –
8 | O=C(Nc1ccc2c(c1)CCCN2c1ccc(C(=O)NO)cc1)Nc1ccc(Cl)c(C(F)(F)F)c1 | 5.47 | 5.54 | 1 µM | 5.52 | 5.92 | pIC50 [8]: 4.88
9 | O=C(Nc1ccc2c(c1)N(Cc1ccc(C(=O)NO)cc1)CC2)Nc1ccc(Cl)c(C(F)(F)F)c1 | 5.35 | 5.55 | 1.4 µM | 5.51 | 6.60 | inhibition [2]: Dose-dependent effect; Ratio IC50 (Homo sapiens [3]): 6.8; inhibition [4]: Dose-dependent effect; inhibition [5]: Dose-dependent effect; inhibition [6]: Dose-dependent effect; inhibition [7]: Dose-dependent effect; inhibition [10]: Dose-dependent effect; pIC50 (Histone deacetylase 8): 5.77
10 | O=C(/C=C/c1ccc(CN2CCc3cc(NC(=O)Nc4ccc(Cl)c(C(F)(F)F)c4)ccc32)cc1)NO | 5.46 | 5.57 | 1.2 µM | 5.64 | 5.94 | –
11 | CNC(=O)c1cc(Oc2ccc(NC(=O)Nc3ccc(Cl)c(C(F)(F)F)c3)cc2)ccn1 [SORAFENIB] | 5.14 | 5.30 | 5 µM | 5.20 | – | –
12 | O=C(CCCCCCC(=O)Nc1ccc(NC(=O)Nc2ccc(Cl)c(C(F)(F)F)c2)cc1)NO | 5.09 | 5.02 | 4.5 µM | 5.34 | – | –
13 | O=C(Nc1ccc(Nc2ncc(C(=O)NO)cn2)cc1)Nc1ccc(Cl)c(C(F)(F)F)c1 | < 5.00 | < 5.00 | 5.8 µM | < 5.00 | – | –
14 | O=C(Nc1ccc2c(c1)CCN2c1ccc(C(=O)NO)cc1)Nc1ccc(Cl)c(C(F)(F)F)c1 | 5.39 | 5.47 | 2 µM | 5.42 | 6.08 | –
15 | O=C(Nc1ccc2c(c1)CCCN2Cc1ccc(C(=O)NO)cc1)Nc1ccc(Cl)c(C(F)(F)F)c1 | 5.35 | 5.52 | 1.4 µM | 5.49 | – | –
